The values below are quoted from earlier work in patent US20230087756A1, “SYSTEMS AND METHODS FOR […] OF BREWED BEVERAGES AND ACTIVE INGREDIENTS” (RECEPTOR HOLDINGS, INC., priority 2020, published 2023).

Molecules are shown by their SMILES. Bounds are passed on as bounds.

For `CCCCCc1cc(O)c2c(c1)OC(C)(C)[C@@H]1CCC(C)=C[C@@H]21` [THC, (−)-trans-delta-9-tetrahydrocannabinol], where the note is “after administration”, the “duration of appetite stimulant effect” value was no less than 24 h. Also, the peak effect (after most forms of oral administration) was 2 to 4 h. Besides, the absorbed (after single oral doses) is listed as 90-95%. Further, the “duration of action for psychoactive effects” value (oral administration) is 4 to 6 h.
